{"source": "patent US8945832B2", "about": "“Treatment prediction involving HMGCR” (Atlas Antibodies AB, priority 2008, dated 2015)", "key": {"[1]": {"system": "stage II invasive breast cancer", "test": "Randomized premenopausal cohort: recurrence free survival, adjuvant tamoxifen vs no adjuvant endocrine treatment, by HMGCR protein status (IHC on TMA)", "format": "in vivo, human", "details": "for outcome (RFS) of HMGCR positive and ER negative vs HMGCR negative and ER positive patients: tamoxifen treated cohort", "procedure": "The inclusion criteria were pre-menopausal patients, or patients younger than 50 years, with stage II (pT2 N0 M0, pT1-2 N1 M0) invasive breast cancer treated by modified mastectomy or breast conserving surgery with axillary lymph node dissection. Post-operative radiotherapy (50 Gy) was administered after breastconserving surgery and all lymph node-positive patients received locoregional radiotherapy. […] The study design is described in detail elsewhere (Rydén L et al, Eur J Cancer, 2005, 41(2): 256-64). Ethical permission was obtained from the Local Ethics Committees at Lund and Linköping Universities.\nTissue blocks from 500 of the 564 patients could be retrieved for TMA-construction. All cases had been histopathologically re-evaluated on hematoxylin and eosin stained slides. TMA:s were constructed by sampling 2×0.6 mm cores per case from areas representative of invasive cancer, using an manual arraying device (MTA-1, Beecher Inc, WI, USA). […] IHC staining of ER and PR had been performed previously. In line with current clinical praxis, a cut-off at 10% positive nuclei was used to define hormone receptor positivity.\nFor statistical analyses, the cytoplasmic intensity (CI) level was evaluated, in line with what is described in Examples, Section 3 above. […] Two categories were defined: “HMGCR high” corresponding to CI=weak, moderate and strong and “HMGCR low” corresponding to CI=absent This classification of samples was used for RFS analysis according to the Kaplan-Meier estimator, and the log-rank test was used to compare survival in different strata. ER and PR negativity was defined as <10% positively staining nuclei, according to current clinical guidelines in Sweden. All statistical tests were two-sided, and p-values of <0.05 were considered significant. All calculations were made with the statistical package SPSS 17.0 (SPSS Inc. Illinois, USA)."}, "[2]": {"system": "primary breast tumors", "test": "Gene expression analysis of breast cancer: RFS by HMGCR mRNA level in tamoxifen treated patients (GSE 9893)", "format": "in vivo, human", "text": "Data was collected from a previously performed microarray study, Chanrion et al, based on a patient cohort of 155 primary breast tumors obtained from patients who had undergone initial surgery between 1989 and 2001 at the Cancer Research Center of Val d'Aurelle in Montpellier, the Bergonie' Institute in Bordeaux, or the Department of Obstetrics and Gynecology of Turin.\nThe median follow-up time for all patients was 5.5 years. Eight tumors were ER negative, and six of these tumors were progesterone receptor (PR) positive. No patient received neoadjuvant systemic chemotherapy. […] 121 patients also received adjuvant radiotherapy. Raw gene expression data and clinical data were downloaded from Gene Expression Omnibus (http://www.ncbi.nlm.nih.gov/GEO/) (accession number GSE 9893). The log ratio of gene expression values was used without further transformation. For statistical analysis HMGCR mRNA expression levels were analysed as a continuous variable."}, "[3]": {"system": "breast cancer", "details": "5 years tamoxifen compared to no adjuvant treatment; cited from earlier work"}, "[4]": {"system": "breast cancer", "details": "cited from earlier work"}, "[5]": {"system": "breast cancer", "details": "cited from earlier work", "remark": "listed apart in the source"}, "[6]": {"system": "breast cancer", "details": "patients with ER positive tumors, irrespective of lymph node status; five years adjuvant; cited from earlier work"}, "[7]": {"system": "breast cancer", "details": "cited from earlier work", "remark": "listed apart in the source"}, "[8]": {"system": "MCF-7 breast cancer cells", "details": "MCF-7 cells; cited from earlier work"}}, "note": "Like-named read-outs stand apart in the source and are kept apart here."}
{"smiles": "CC/C(=C(\\c1ccccc1)c1ccc(OCCN(C)C)cc1)c1ccccc1", "note": "[tamoxifen]", "values": [{"measurement": "RFS of HMGCR high vs HMGCR low category", "setting": "[1]; ER positive tamoxifen treated subjects, FIG. 2a", "value": "significantly better RFS"}, {"measurement": "effect of tamoxifen treatment on recurrence free survival", "setting": "[1]; HMGCR negative and ER negative subjects, FIG. 10b", "value": "no positive effect"}, {"measurement": "effect of tamoxifen treatment on recurrence free survival", "setting": "[1]; HMGCR positive and ER negative subjects, FIG. 9a", "value": "improved survival"}, {"measurement": "effect of tamoxifen treatment on recurrence free survival", "setting": "[1]; HMGCR positive and ER negative, lymph node positive patients, FIG. 9b", "value": "further enhanced"}, {"measurement": "tamoxifen impact on survival (RFS)", "setting": "[1]; HMGCR positive and PR negative subjects, FIG. 12, not statistically significant", "value": "trend of tamoxifen impact on survival"}, {"measurement": "effect of tamoxifen treatment on recurrence free survival", "setting": "[1]; HMGCR positive or ER positive subjects, FIG. 10a", "value": "significantly positive effect"}, {"measurement": "response to tamoxifen treatment (RFS)", "setting": "[1]; PR negative and HMGCR negative subjects, FIG. 11b", "value": "no response"}, {"measurement": "response to tamoxifen treatment (RFS)", "setting": "[1]; PR positive and HMGCR positive subjects, FIG. 11a", "value": "significant response"}, {"measurement": "RFS associated with HMGCR expression", "setting": "[1]; lymph node positive patients who received tamoxifen, FIG. 4a, p=0.001", "value": "improved RFS"}, {"measurement": "outcome (RFS) of HMGCR positive and ER negative vs HMGCR negative and ER positive patients", "setting": "[1]; node positive subjects, FIG. 6a", "value": "better outcome"}, {"measurement": "RFS of HMGCR high vs HMGCR low category", "setting": "[1]; patients treated with tamoxifen, FIG. 1a, p=0.001", "value": "significantly better RFS"}, {"measurement": "effect of tamoxifen treatment on recurrence free survival", "setting": "[1]; patients with HMGCR high tumors, irrespective of ER status, tamoxifen vs no adjuvant endocrine treatment, FIG. 8a", "value": "significantly improved survival"}, {"measurement": "effect of tamoxifen treatment on recurrence free survival", "setting": "[1]; patients with HMGCR low tumors, irrespective of ER status, FIG. 8b", "value": "no impact on survival"}, {"measurement": "effect of HMGCR level on RFS", "setting": "[1]; tamoxifen treated ER negative subjects, FIG. 7a", "value": "positive effect on RFS"}, {"measurement": "outcome (RFS) of HMGCR positive and ER negative vs HMGCR negative and ER positive patients", "setting": "[1]; FIG. 3a", "value": "better outcome"}, {"measurement": "RFS of high vs low HMGCR mRNA expression", "setting": "[2]; ER positive subjects only, adjuvant tamoxifen, FIG. 13b", "value": "improved RFS"}, {"measurement": "RFS of high vs low HMGCR mRNA expression", "setting": "[2]; all 155 patients, adjuvant tamoxifen 20 mg daily for 5 years, FIG. 13a", "value": "significantly better RFS"}, {"measurement": "reduction in breast cancer specific mortality", "setting": "[3]", "value": 34, "unit": "%"}, {"measurement": "reduction in disease recurrence", "setting": "[3]", "value": 41, "unit": "%"}, {"measurement": "recurrence-free and overall survival in tamoxifen treated patients", "setting": "[4]; high expression (>75% nuclear fraction) of PR, irrespectively of ERα status", "value": "increased recurrence-free and overall survival"}, {"measurement": "effect from tamoxifen treatment", "setting": "[4]; lower PR level, <75%", "value": "no positive effect"}, {"measurement": "disease free survival, tamoxifen vs no adjuvant treatment", "setting": "[5]; older patients (≧60 years) with ERα+/PR+ tumors", "value": "significantly longer disease free survival"}, {"measurement": "disease free survival, tamoxifen vs no adjuvant treatment", "setting": "[5]; younger patients (<60 years)", "value": "no significant effect"}, {"measurement": "breast cancer mortality", "setting": "[6]", "value": "reduces the breast cancer mortality"}, {"measurement": "ERα positive patients who do not respond to tamoxifen treatment", "setting": "[7]", "value": "30-40%"}]}
{"smiles": "CC[C@H](C)C(=O)O[C@H]1CCC=C2C=C[C@H](C)[C@H](CC[C@@H]3C[C@@H](O)CC(=O)O3)[C@H]21", "note": "[mevastatin]", "values": [{"measurement": "induction of HMGCR activity", "setting": "[8]", "value": "10- to 15 fold"}, {"measurement": "induction of HMGCR mRNA expression", "setting": "[8]", "value": "2.5- to 3.5 fold"}]}
